Where two headings read alike, the source gives them in different places.
Columns and labels:
E. coli CA 8000 (WT) = format: cell-based, Escherichia coli
[1] = test system: lomefloxacin resistant cells of E. coli; format: cell-based, Escherichia coli; conditions: 1.5 μg/ml
Nal^R mutants of E. coli = format: cell-based, Escherichia coli; conditions: 5 μg/ml
[2] = test system: Lom^R mutants of Mycobacterium smegmatis; format: cell-based; conditions: Lom^R mutants isolated in medium with 20 μg/ml lomefloxacin
[3] = test system: Mycobacterium smegmetis wild type; format: cell-based

With `CCn1cc(C(=O)O)c(=O)c2cc(F)c(N3CCNC(C)C3)c(F)c21` (stereo not shown) [Lomefloxacin, lomefloxacin] the “Growth in poison agar medium” value (E. coli CA 8000 (WT)) was “−”, the “Growth in poison agar medium” value ([1]; CAL 101) was “+” and the “Growth in poison agar medium” value ([1]; CAL 102) was “+”. The “Growth in poison agar medium” value ([1]; CAL 103) was “+”, the “Growth in poison agar medium” value ([1]; CAL 104) was “+” and the “Growth in poison agar medium” value ([1]; CAL 105) was “+”. For the same compound, the “Growth in poison agar medium” value ([1]; CAL 106) was “+”, the “Growth in poison agar medium” value ([1]; CAL 107) was “+” and the “Growth in poison agar medium” value ([1]; CAL 108) was “+”. For the same compound, the “Growth in poison agar medium” value (Nal^R mutants of E. coli; CAN 101) was “−”, the “Growth in poison agar medium” value (Nal^R mutants of E. coli; CAN 102) was “−” and the “Growth in poison agar medium” value (Nal^R mutants of E. coli; CAN 103) was “−”. The “Growth in poison agar medium” value (Nal^R mutants of E. coli; CAN 104) was “−”, the “Growth in poison agar medium” value (Nal^R mutants of E. coli; CAN 105) was “−” and the “Growth in poison agar medium” value (Nal^R mutants of E. coli; CAN 106) was “−”. For the same compound, the “Growth in poison agar medium” value (Nal^R mutants of E. coli; CAN 107) was “−”, the “Growth in poison agar medium” value (Nal^R mutants of E. coli; CAN 108) was “−” and the “Growth in poison agar medium” value (Nal^R mutants of E. coli; CAN 109) was “−”. The “Growth in poison agar medium” value (Nal^R mutants of E. coli; CAN 110) was “−”, the “Growth in poison agar medium” value (Nal^R mutants of E. coli; CAN 111) was “−” and the “Growth in poison agar medium” value (Nal^R mutants of E. coli; CAN 112) was “−”. For the same compound, the “Growth in poison agar medium” value (Nal^R mutants of E. coli; CAN 113) was “−”, the “Growth in poison agar medium” value (Nal^R mutants of E. coli; CAN 114) was “−” and the “Growth in poison agar medium” value (Nal^R mutants of E. coli; CAN 115) was “−”. The “Growth in poison agar medium” value (Nal^R mutants of E. coli; CAN 116) was “−”, the “Growth in poison agar medium” value (Nal^R mutants of E. coli; CAN 117) was “−” and the “Growth in poison agar medium” value (Nal^R mutants of E. coli; CAN 118) was “−”. The “Growth in poison agar medium” value (Nal^R mutants of E. coli; CAN 119) was “−”, the “Growth in poison agar medium” value (Nal^R mutants of E. coli; CAN 120) was “−” and the “Growth in poison agar medium” value (Nal^R mutants of E. coli; CAN 121) was “−”. For the same compound, the “Growth in poison agar medium” value (Nal^R mutants of E. coli; CAN 122) was “−”, the “Growth in poison agar medium” value (Nal^R mutants of E. coli; CAN 123) was “−” and the “Growth in poison agar medium” value (Nal^R mutants of E. coli; CAN 124) was “−”. The “Growth in poison agar medium” value (Nal^R mutants of E. coli; CAN 125) was “−”, the “Growth in poison agar medium” value (Nal^R mutants of E. coli; CAN 126) was “−” and the “concentration upto which the mutants were resistant” value [2] was no more than 60 µg/mL.
In the case of `CC[n+]1c(-c2ccccc2)c2cc(N)ccc2c2ccc(N)cc21` [ethidium bromide], the “concentration at which the strain is killed” value [3] was 3 µg/mL.

— US20020090380A1, “Novel formulation comprising thymol useful in the treatment of drug resistant bacterial infections” (priority 2000, published 2002)
